Experimental data from US20210061800A1, “COMPOUNDS FOR TREATING EYE DISEASES AND METHODS THEREOF” (Agency for Science, Technology and Research, priority 2017, published 2021).
pEC50: −log10 of the molar value.

Key:
human PDGFRβWT = test: Humanized yeast screen: prevention of PDGFR-induced death of yeast cells; conditions: 10 μM; compared to DMSO or Gleevec
Experimental: A humanized yeast screen was performed. Yeast cells carrying stably integrated GAL-PDGFRβ were first grown in YEP+raff medium and then seeded into fresh YEP+raff+GAL medium to induce expression of human PDGFRβWT.

PDGFR-WT [1] = target: T1, PDGFR-WT (Homo sapiens, UniProt P09619); test: PDGFRβ signaling in HEK293 cells (Western blot: PDGFRβ autophosphorylation, Shp2 phosphorylation); assay type: cell-based; design: expressed in transfected cells; host or cells: HEK293; conditions: 20 ng/ml PDGF
Experimental: FIG. 5 illustrates a Western-blot analysis result of Ex 1 (a compound of the present invention), in relation to inhibit PDGFRβ signaling in HEK293 cells expressing PDGFRβ.
Human Embryonic kidney cells (HEK293) were constructed to express human PDGFRWT under the control of constitutive CMV promoter. Cells were grown in the presence of 20 ng/ml PDGF (the ligand for the PDGFRβ) to activate the PDGFRβ. Different concentration of Ex 1 were added to study its effect on the PDGFRβ-mediated signaling. Autophosphorylation of PDGFRβ and Shp2 phosphorylation were monitored by Western blotting were used as the markers for PDGFRβ signaling. B Actin was used as an internal control.
Target sequence in this assay (P09619 33-1106): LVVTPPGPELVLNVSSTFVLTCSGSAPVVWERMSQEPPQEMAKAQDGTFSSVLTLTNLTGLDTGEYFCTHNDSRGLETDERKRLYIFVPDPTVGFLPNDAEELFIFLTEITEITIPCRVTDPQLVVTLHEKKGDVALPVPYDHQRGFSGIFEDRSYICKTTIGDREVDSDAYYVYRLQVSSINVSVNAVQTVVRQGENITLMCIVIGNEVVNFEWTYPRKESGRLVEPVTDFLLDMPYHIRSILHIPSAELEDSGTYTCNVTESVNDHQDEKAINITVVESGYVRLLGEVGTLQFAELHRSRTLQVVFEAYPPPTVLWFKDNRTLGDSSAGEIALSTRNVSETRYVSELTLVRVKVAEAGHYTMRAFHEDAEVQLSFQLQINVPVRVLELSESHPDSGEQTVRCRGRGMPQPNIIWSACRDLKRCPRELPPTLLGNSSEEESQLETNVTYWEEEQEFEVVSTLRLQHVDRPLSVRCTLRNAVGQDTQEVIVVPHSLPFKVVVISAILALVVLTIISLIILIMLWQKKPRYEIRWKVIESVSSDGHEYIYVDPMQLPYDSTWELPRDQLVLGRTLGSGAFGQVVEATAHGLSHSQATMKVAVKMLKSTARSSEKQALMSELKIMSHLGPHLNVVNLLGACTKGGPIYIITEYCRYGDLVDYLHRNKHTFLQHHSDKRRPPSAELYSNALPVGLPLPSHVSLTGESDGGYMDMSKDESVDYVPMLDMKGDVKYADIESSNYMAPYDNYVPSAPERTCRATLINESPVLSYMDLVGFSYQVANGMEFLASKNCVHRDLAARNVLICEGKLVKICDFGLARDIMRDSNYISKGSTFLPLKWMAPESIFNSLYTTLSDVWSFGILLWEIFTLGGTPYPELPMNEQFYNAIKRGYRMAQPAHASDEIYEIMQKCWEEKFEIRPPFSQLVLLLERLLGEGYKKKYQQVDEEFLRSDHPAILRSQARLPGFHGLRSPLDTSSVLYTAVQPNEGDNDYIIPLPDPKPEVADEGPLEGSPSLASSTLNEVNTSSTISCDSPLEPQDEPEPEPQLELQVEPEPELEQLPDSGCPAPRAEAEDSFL

PDGFR-WT [2] = target: T1, PDGFR-WT; test: PDGFRβ-dependent growth of Ba/F3 cells; assay type: cell-based; conditions: inhibition of PDGFRβ-dependent growth of Ba/F3 cells; read-out: effective concentration-50 (EC50) against PDGFR-WT
Experimental: Based on in silico modelling and simulation, different derivatives of the diphenyl oxyacetamide based compounds (formula (I)) were synthesized. The potency of the compounds were measured in terms of its ability to inhibit the PDGFRβ-dependent growth of Ba/F3 cells.
FIG. 6 illustrates work flow for synthesis of G6 derivatives Effective Concentration-50 (EC50) as determined using Ba/F3 cell.
Target sequence in this assay (P09619 554-1106 limits assumed, change not shown): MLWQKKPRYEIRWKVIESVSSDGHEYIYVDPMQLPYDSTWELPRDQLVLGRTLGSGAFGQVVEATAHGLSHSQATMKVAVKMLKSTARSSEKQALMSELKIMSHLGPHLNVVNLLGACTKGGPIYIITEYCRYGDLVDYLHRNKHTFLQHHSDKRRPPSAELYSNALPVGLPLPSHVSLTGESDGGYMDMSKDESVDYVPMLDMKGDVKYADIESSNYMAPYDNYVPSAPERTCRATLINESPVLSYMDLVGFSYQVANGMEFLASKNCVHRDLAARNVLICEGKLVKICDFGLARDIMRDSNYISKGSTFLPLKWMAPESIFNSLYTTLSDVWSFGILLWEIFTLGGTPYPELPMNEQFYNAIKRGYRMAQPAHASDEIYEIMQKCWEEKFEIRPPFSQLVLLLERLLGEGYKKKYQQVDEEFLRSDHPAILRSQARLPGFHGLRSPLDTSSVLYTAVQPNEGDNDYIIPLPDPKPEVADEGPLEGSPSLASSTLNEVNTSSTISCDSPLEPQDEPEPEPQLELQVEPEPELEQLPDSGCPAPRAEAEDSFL

human PDGFRβ = target: T2, human PDGFRβ (Homo sapiens, UniProt P09619); test: PDGFRβ signaling in Ba/F3 cells (Western blot); assay type: cell-based; conditions: BaF3 cells expressing PDGFRβ, PDGF-induced
T2 construct: expressed in transfected cells; host or cells: Ba/F3
T2 sequence (P09619 33-1106): as the sequence (P09619 33-1106) above
Experimental: FIG. 7 illustrates a Western-blot analysis result of Ex 2 and Ex 3 (compounds of the present invention) to inhibit PDGFRβ signaling in BaF3 cells expressing PDGFRβ.
Ba/F3 cells were constructed to express human PDGFRβ under the control of CMV promoter. The PDGFRβ signaling was induced by addition of the ligand PDGF. The effect of […] and Ex 3 was added to the cell cultures at different concentrations to determine their efficacy to inhibit the PDGFRβ signaling as reflected by the inhibition of PDGFRβ autophosphorylation and the phosphorylation of Shp2, a downstream effector of the PDGFRβ signal pathway.
FIG. 7 illustrates a Western-blot analysis result, illustrating the efficacy of compounds of the present invention to inhibit PDGFRβ signaling in BaF3 cells expressing PDGFRβ.

[3] = system: Choroid membrane preparations; test: Ex vivo organoid model of angiogenesis (choroid membrane preparations in Matrigel); assay type: cell-based, mice; conditions: mouse choroid in Matrigel
Experimental: Choroid membrane preparations isolated from young mice were cultured in Matrigel. Matrigel containing these preparations were layered with growth medium containing various concentrations of Ex 2 and Ex 3. The ‘blood vessel’ growth was monitored and quantified using a specialized image analysis software.
FIG. 10 illustrates the efficacy of the compounds of the present invention in an ex vivo organoid model of angiogenesis. Compounds of the present invention show anti-angiogenesis in organoid model.

[4] = system: Choroid Neo-Vascularization; test: Laser CNV mouse model for wet-AMD; assay type: in vivo; conditions: injection into one eye, imaged for two weeks
Experimental: In vivo testing of Ex 3 in CNV (Choroid Neo-Vascularization)-laser mouse model was performed. Eyes of young mice were treated with laser to create choroid damage which results in the leakage of blood vessels (seen as light areas of FIG. 11). In each mouse, one eye was injected with a predetermined amount of Ex 3 while the other eye remained untreated to serve as ‘treatment(−)’ control. Mouse eyes were imaged intermittently for two weeks. The efficacy of the compound Ex 3 is indicated by its ability to prevent the leakage of the blood vessels (reduction or disappearance of the bright green areas).
FIG. 11 illustrates the efficacy of a compound of the present invention in Laser CNV mouse model for wet-AMD.

Structure (SMILES)	cell growth (OD reading) of humanized yeast expressing PDGFRβ (human PDGFRβWT)	inhibition of PDGFRWT-mediated signaling (PDGFR-WT [1])	pEC50 (PDGFR-WT [2])	activity against PDGFRβ-WT signaling (human PDGFRβ)	anti-angiogenesis efficacy ('blood vessel' growth) [3]	efficacy in preventing leakage of blood vessels [4]
Cc1ccc(NC(=O)COc2ccc(-n3cnnn3)cc2)cc1C [Ex 1, N-(3,4-dimethylphenyl)-2-[4-(tetrazol-1-yl)phenoxy]acetamide]	allows cell-growth more efficiently compared to DMSO or Gleevec	efficiently inhibits the PDGFRWT-mediated signaling				
Cc1ccc(NC(=O)COc2ccc(-c3cnc4ccccn34)cc2)cc1C [Ex 2, N-(3,4-dimethylphenyl)-2-[4-imidazo[1,2-a]pyridin-3-ylphenoxy]acetamide]			8.00	show activities against PDGFRβ-WT	better anti-angiogenesis efficacy then Ex 3	
Cc1ccc(NC(=O)COc2ccc(-c3cnc4ccccn34)cc2)cc1C(F)(F)F [Ex 3, N-[4-methyl-3-(trifluoromethyl)phenyl]-2-[4-imidazo[1,2-a]pyridin-3-ylphenoxy]acetamide]			8.00	show activities against PDGFRβ-WT		efficacy
